Assay results reported in patent US6676950B2, “Neurokinin receptor antagonists and methods of use thereof for inhibiting HIV infection” (The Children's Hospital of Philadelphia, priority 2001, dated 2004).

What was measured:
[1] = tested on: R5 strains (Bal, ADA, CSF-6 and BL-6); assay: HIV RT activity in MDM infected with R5 strains; format: cell-based; settings: 8 days after infection
Experimental: (§1) Based upon their differential use of the major HIV co-receptors, HIV isolates have been referred to as R5, X4 or R5X4 strains, respectively (29). The M-tropic (macrophage-tropic) R5 prototype strains (Bal and ADA), dual tropic strain (89.6) and X4 primary isolate (UG024), were obtained from the NIH AIDS Reagent Program. Primary M-tropic isolates (BL-6 and CSF-6) were isolated from the blood and cerebrospinal fluid cells, respectively, of a subject with AIDS. […] The cells were also incubated with SP and/or anti-SP antibody. In this case, SP was incubated with (1:1000 dilution in 10% FCS DMEM) or without anti-SP antibody at room temperature for 10 min and then the mixture was added to the cell cultures for 2 h. When the cells were treated with the combination of CP-96,345 and SP, or CP-96,345, SP and anti-SP antibody, CP-96,345 was incubated with the cell culture for 10 min and then SP was added to the MDM or CP-96,345, SP and anti-SP (1:1000 in 10% FCS DMEM) were incubated for 10 min at room temperature and the mixture was incubated with the MDM for 2 h before infection with HIV. Untreated MDM served as controls. The cells were treated prior to, during, and throughout the infection. […]

CCR5 = assay: Flow cytometry of CCR5 receptor expression on MDM; format: cell-based, human
Experimental: (§2) The cells were removed from the culture plate and then resuspended in 100 μl of phosphate-buffered saline (PBS). After incubation with 20 μl of either anti-CCR5-FITC or anti-CXCR4-FITC or anti-CD4-FITC or anti-CD14-FITC for 45 min at 4° C., the cells were washed twice with PBS and fixed with 1% paraformaldehyde in PBS. Fluorescein-conjugated control antibodies were isotype-matched IgG. Fluorescence was analyzed on an EPICS-Elite flow cytometer (Beckman-Coulter Electronics, Hialeah, Fla.).

[2] = tested on: luciferase-encoding HIV virions pseudotyped with ADA Env (CCR5-dependent); assay: Pseudotype reporter virus entry assay, ADA Env; format: cell-based
Experimental: Pseudotype reporter virus entry assay: Recombinant luciferase-encoding HIV virions pseudotyped with Env from the M-tropic ADA (CCR5-dependent) and amphitropic murine leukemia virus (MLV) (CCR5-independent) were used to study HIV infection of MDM incubated with or without CP-96,345 or R-113281. The Env-deleted luciferase reporter plasmid PNL-Luc-E-R+ (kindly provided by N. Landau) was cotransfected into 293T cells along with plasmids encoding the ADA or MLV Env genes as previously described (31). Supernatants were collected 48 h later, assayed for p24^Gag antigen content, and frozen at −80° C. MDM (2.5×10^5 cells/well, in 48-well plates) were incubated overnight with or without CP-96,345 or R-113281 and then infected using 20 ng of p24^Gag antigen equivalent of each pseudotype HIV per well, in the presence of polybrene (7.5 μg/ml). At 72 h postinfection, the cells were lysed in 150 μl of 0.5% Triton-X-100 in PBS. Lysate (50 μl) was mixed with an equal volume of luciferase substrate (Promega, […].) and luciferase activity was determined in a microtiter plate luminometer (Dynex Technologies, Chantilly, Va.). The results were expressed as relative light units (RLU) in CP-96,345-treated or R-113281-treated and infected MDM as a percentage of that in untreated and infected MDM.

HIV Bal strain [3] = assay: HIV RT activity in culture supernatants of HIV Bal strain-infected MDM; format: cell-based, HIV-1
Experimental: The cells were also incubated with SP and/or anti-SP antibody. In this case, SP was incubated with (1:1000 dilution in 10% FCS DMEM) or without anti-SP antibody at room temperature for 10 min and then the mixture was added to the cell cultures for 2 h. When the cells were treated with the combination of CP-96,345 and SP, or CP-96,345, SP and anti-SP antibody, CP-96,345 was incubated with the cell culture for 10 min and then SP was added to the MDM or CP-96,345, SP and anti-SP (1:1000 in 10% FCS DMEM) were incubated for 10 min at room temperature and the mixture was incubated with the MDM for 2 h before infection with HIV. Untreated MDM served as controls. The cells were treated prior to, during, and throughout the infection.
HIV Infection: After 2 h incubation with or without the reagents described above, the cells were infected with equal amounts of cell-free HIV based on p24 antigen content (20 ng/10^6 cells) overnight, and then washed to remove unbound virus. Fresh media containing SP and/or CP-96,345 or anti-SP antibody were added to the MDM as described above. The culture media and the reagents were replaced twice weekly. The culture supernatants were harvested for HIV reverse transcriptase (RT) activity determinations. After HIV infection, the MDM were incubated for 8 to 12 days. At the termination of the experiments, cellular RNA was extracted for assessment of HIV gag gene expression using RT-PCR or real time RT-PCR assays.
The HIV RT activity assay was carried out based on the technique of Willey et al. (30) with modification (22).

X4 strain (UG024) = assay: HIV RT activity in MDM infected with X4 strain; format: cell-based; settings: 8 days after infection
Experimental: as §1

R5X4 strain (89.6) = assay: HIV RT activity in MDM infected with R5X4 strain; format: cell-based; settings: 8 days after infection
Experimental: as §1

HIV Bal strain [4] = assay: HIV-induced syncytia formation in MDM; format: cell-based; settings: 10^−7M; 12 days after infection; light microscope
Experimental: Syncytia formation: To study the effect of neuropeptide antagonists on HIV-induced syncytia formation in MDM, 7-day-cultured macrophages were incubated in the presence or absence of CP-96,345 (10^−7M) for 2 h and then infected with HIV Bal strain. MDM which were neither incubated with CP-96,345 nor infected with HIV were used as a cell culture control. The morphology of HIV-induced syncytia formation was observed and photographed by a light microscopy (X 400) 12 days after HIV infection.

[5] = tested on: CD4, CXCR4 and CD14 receptors; assay: Flow cytometry of CD4, CXCR4 and CD14 receptor expression on MDM; format: cell-based, human; settings: incubated overnight (24 h); direct immunofluorescence
Experimental: as §2

## COc1cc(C(=O)N2CCO[C@](CCN3CCC4(CC3)c3ccccc3C[S@+]4[O-])(c3ccc(Cl)c(Cl)c3)C2)cc(OC)c1OC.Cl [R-113281]
[1]; R-113281 10^−6 M
  replication of R5 strains (HIV RT activity): inhibited
CCR5; R-113281 10^−6 M, 24 hours
  CCR5 protein expression (percentage of CCR5 positive cells, flow cytometry): inhibited
[2]; R-113281 10^−7 and 10^−6 overnight pretreatment
  ADA Env-pseudotyped HIV infection of MDM (luciferase activity): inhibited
HIV Bal strain [3]; MDM treated 2 hours, HIV-1 M-tropic strain Bal, day 8 post-infection
  HIV RT activity: significantly reduced
X4 strain (UG024); R-113281 10^−6 M
  replication of X4 strain (HIV RT activity): not affected
R5X4 strain (89.6); R-113281 10^−6 M
  replication of R5X4 strain (HIV RT activity): inhibited to a lesser extent

## COc1ccccc1CN[C@H]1C2CCN(CC2)[C@H]1C(c1ccccc1)c1ccccc1 [CP-96,345, [2S,3S)-cis-2-(diphenylmethyl)-N-[(2-methoxyphenyl)-methyl]-1-azabicyclo [[2.2.2]-octan-3-amine]]
[1]; CP-96,345 10^−7M
  replication of R5 strains (HIV RT activity): inhibited
CCR5; incubated overnight (24 h), direct immunofluorescence
  CCR5 receptor expression on MDM (percentage positive cells): down-regulated
[2]; CP-96,345 10^−8 and 10^−7 M overnight pretreatment
  ADA Env-pseudotyped HIV infection of MDM (luciferase activity): inhibited
HIV Bal strain [3]; 10^−7M, 8 days after infection, vs HIV infection control
  viral replication as determined by HIV RT activity: inhibited
HIV Bal strain [3]; SP 10^−6M, CP-96,345 10^−6M, anti-SP antibody 1:1000 dilution, 12 days after infection
  effect on SP-enhanced HIV replication in MDM (HIV RT activity and HIV gag mRNA levels): abrogated
HIV Bal strain [3]; in presence of SP 10^−6M, CP-96,345 10^−6M and/or anti-SP antibody 1:1000, 12 days
  HIV replication relative to HIV infection control: down-regulated HIV replication to a level that was even lower than that of the HIV infection control
HIV Bal strain [4]
  giant syncytia formation induced by HIV Bal strain infection: failed to develop the giant syncytia
[5]
  CD4, CXCR4 and CD14 receptor expression on MDM: only CCR5 expression was down-regulated
X4 strain (UG024); CP-96,345 10^−7M
  replication of X4 strain UG024 (HIV RT activity): not affected
R5X4 strain (89.6); CP-96,345 10^−7M
  replication of R5X4 strain 89.6 (HIV RT activity): inhibited to a lesser extent
